According to patent US20220017495A1, “CONJUGATES OF BIVALENT EVANS BLUE DYE DERIVATIVES AND METHODS OF USE” (THE UNITED STATES OF AMERICA, AS REPRESENTED BY THE …, priority 2019, published 2022):
Where a name gives a salt, the structure may show the parent alone.

Assays:
[1] = Optical properties: absorption, emission, quantum yield and quantum efficiency; assay type: physicochemical; design: ϵ600nm / ϵpeak: unit not given here; details: for Molar ϵ600nm / Molar ϵpeak: in M-1cm-1 (unit assumed); for Absorption peak / Emission peak: in BSA; for QE: QE=ε*QY; for QY600nm: relative, NtEB set as 1; for Extinction coefficient: as given in text (peak, BSA)
Method: The absorption and the emission spectra of N(tEB)2, NtEB and EB were measured in PBS, BSA and FBS buffers. […] The similar emission peaks of the three EB derivatives in BSA were recorded at 661, 652 and 660 nm, respectively.
Fluorescence brightness of each compound was further compared with equal molar amount of N(tEB)2, NtEB, or EB in the presence or absence of human serum albumin.
Quantum efficiency is a dye metric encompassing both the quantum yield and absorption coefficient (QE=ε*QY).

[2] = target: T1, human serum albumin (HSA) (Homo sapiens, UniProt P02768); test: Biolayer interferometry (BLI) binding to biotinylated HSA
Method: In this study, we used the streptavidin conjugated biosensors (Pall Fort6Bio LLC, CA). We preincubated the biosensors with biotinylated HSA (Abeam Inc., Cambridge, Mass.) for 10 minutes. After removing the unbound biotinylated HSA, the biosensors were washed for 1 minute. After blocking the spare biosensor, we added EZ-Link™ Sulfo-NHS-Biotin (Thermo Fisher Scientific, Rockford, Ill.) to each well and then removed it and washed the wells.
Association of a given dilution of a compound with the albumin-derivatized biosensor was measured for 600 seconds and then in turn, dissociation of the compound from the albumin measured for another 600 seconds. Data was analyzed using the OCTET Data Analysis software 7.0.

[3] = target: T1, human serum albumin (HSA); test: Atomic force microscopy of complexes with HSA; design: purchased Abeam Inc., Cambridge, Mass; (so in the source); details: molar ratio 1:10, 1:1 and 10:1 with HSA
Method: We performed atomic force microscopy (AFM) to study the morphological structures of the complex. […] Samples ([…]) were cast on freshly peeled mica substrate, followed by drying, rinsing, and dehumidifying. AFM was carried out in tapping mode in air on a PicoForce Multimode AFM (Bruker, CA) equipped with a NANOSCOPE V controller, a type E scanner head, and a sharpened TESP-SS (Bruker, CA) AFM cantilever. An inverted optical microscope (IX71, Olympus, Japan) was used to capture pictures. AFM images were then analyzed by NANOSCOPE Software (version 7.3-8.15, Bruker, CA). For quantification, 10 different fields of view in one image were selected to quantify the “dimer” and the “monomer”. The size and morphology of dimer and monomer was defined by ImageJ (NIH, MD), a public domain Java image processing program.

blood glucose = test: Blood glucose monitoring in T2DM mice; assay type: in vivo, db/db mice
[4] = system: U-87MG, UM-22B and INS-1 tumor mouse xenografts; test: PET tumor uptake and ex vivo biodistribution in tumor xenografts; design: species or system nude mice; details: for Tumor retention compared with IgG: U-87MG xenografts
Description: For each scan, regions of interest (ROIs) were drawn using vendor software (ASI Pro 5.2.4.0; Siemens Medical Solutions) on decay-corrected whole-body coronal images. […] These values were then divided by the administered activity to obtain (assuming a tissue density of 1 g/mL) an image-ROI-derived percentage injected dose per gram (% ID/g).
PET images were reconstructed without correction for attenuation or scattering using a three-dimensional ordered subsets expectation maximization algorithm.

T1 sequence (P02768 25-609): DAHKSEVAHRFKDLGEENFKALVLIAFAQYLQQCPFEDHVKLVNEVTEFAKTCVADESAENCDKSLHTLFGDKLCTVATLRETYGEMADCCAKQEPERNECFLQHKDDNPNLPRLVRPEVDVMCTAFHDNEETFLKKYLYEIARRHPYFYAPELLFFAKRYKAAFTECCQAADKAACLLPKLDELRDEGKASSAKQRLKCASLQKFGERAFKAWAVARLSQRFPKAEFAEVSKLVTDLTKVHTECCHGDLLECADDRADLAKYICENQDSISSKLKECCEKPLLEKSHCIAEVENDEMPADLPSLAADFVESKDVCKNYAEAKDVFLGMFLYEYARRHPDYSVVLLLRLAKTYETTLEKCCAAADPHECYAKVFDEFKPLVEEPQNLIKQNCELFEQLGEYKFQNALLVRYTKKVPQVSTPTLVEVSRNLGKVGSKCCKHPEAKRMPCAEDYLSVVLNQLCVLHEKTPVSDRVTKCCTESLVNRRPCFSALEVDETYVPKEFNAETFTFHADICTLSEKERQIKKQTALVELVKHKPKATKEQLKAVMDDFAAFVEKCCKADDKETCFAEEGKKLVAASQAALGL

Compound	OD600nm ([1]; In BSA)	ODpeak ([1]; In BSA)	ϵ600nm ([1]; In BSA)	ϵpeak ([1]; In BSA)	Molar ϵ600nm ([1]; In BSA)	Molar ϵpeak ([1]; In BSA)	OD600nm ([1]; In FBS)	ODpeak ([1]; In FBS)	ϵ600nm ([1]; In FBS)	ϵpeak ([1]; In FBS)	Molar ϵ600nm ([1]; In FBS)	Molar ϵpeak ([1]; In FBS)	OD600nm ([1]; In PBS)	ODpeak ([1]; In PBS)	ϵ600nm ([1]; In PBS)	ϵpeak ([1]; In PBS)	Molar ϵ600nm ([1]; In PBS)	Molar ϵpeak ([1]; In PBS)	Absorption peak [1] [nm]	Emission peak [1] [nm]	further results
Cc1cc(-c2ccc(N=Nc3ccc4c(S(=O)(=O)O)cc(S(=O)(=O)O)c(N)c4c3O)c(C)c2)ccc1N=Nc1ccc2c(S(=O)(=O)O)cc(S(=O)(=O)O)c(N)c2c1O [EB, tetrasodium salt of 6,6′-{(3,3′-dimethyl[1,1′-biphenyl]-4,4′-diyl)bis[diazene-2,1-diyl]}bis(4-amino-5-hydroxynaphthalene-1,3-disulfonate)]	0.905	0.9551	88.14	93.02	84683.69	89371.71	0.8414	0.9057	81.94	88.21	78732.44	84749.19	0.9906	0.9983	96.47	97.22	92693.55	93414.07	548	660	–
Cc1cc(-c2ccc(NC(=O)CN3CCN(CC(=O)O)CCN(CC(=O)O)CC3)c(C)c2)ccc1N=Nc1ccc2c(S(=O)(=O)O)cc(S(=O)(=O)O)c(N)c2c1O [NtEB]	0.0759	0.1108	18.98	27.70	15696.60	22914.15	0.0883	0.1132	22.08	28.30	18261.00	23410.48	0.0857	0.1533	21.43	38.33	17723.31	31703.42	550	652	QE ([1]; In BSA): 15696.60; QY600nm ([1]; In BSA): 1; QE ([1]; In FBS): 18261.00; QY600nm ([1]; In FBS): 1; Extinction coefficient [1]: 22914 M⁻¹ cm⁻¹; Kd ([2]; pH 7.4): 79 µM; Koff ([2]; pH 7.4): 0.7947 s⁻¹; kon ([2]; pH 7.4): 13500 M⁻¹ s⁻¹; Dimerization of albumin (AFM) [3]: no apparent albumin dimers
exendin-4: exendin-4 peptide, a glucagon-like peptide-1 (GLP-1) agonist	–	–	–	–	–	–	–	–	–	–	–	–	–	–	–	–	–	–	–	–	Reduction of glucose level (blood glucose; 1 h p.i., normalized to baseline plasma glucose): approximately 50%; Glucose level at recovery (blood glucose; at 12 h): 389.67 ± 44.3 mg/dL; Effective time window (from 50% reduction of glucose level to rebound to the original level) (blood glucose; single subcutaneous injection): 10.3 h; Glucose recovery time (blood glucose; single subcutaneous injection): 12 h
Cc1cc(-c2ccc(NC(=O)CN3CCN(CC(=O)O)CCN(CC(=O)Nc4ccc(-c5ccc(N=Nc6ccc7c(S(=O)(=O)O)cc(S(=O)(=O)O)c(N)c7c6O)c(C)c5)cc4C)CC3)c(C)c2)ccc1N=Nc1ccc2c(S(=O)(=O)O)cc(S(=O)(=O)O)c(N)c2c1O [N(tEB)2]	0.1245	0.183	27.79	40.85	37553.09	55198.51	0.1561	0.1931	34.84	43.10	47084.63	58244.99	0.0987	0.1806	22.03	40.31	29771.00	54474.60	610	661	QE improvement over NtEB [1]: 5 fold; Quantum yield enhancement over NtEB [1]: 2 fold; QE ([1]; In BSA): 78929.01; QY600nm ([1]; In BSA): 2.10; QE ([1]; In FBS): 98962.49; QY600nm ([1]; In FBS): 2.10; Extinction coefficient [1]: 55198 M⁻¹ cm⁻¹; Tumor retention compared with IgG ([4]; 24 h p.i.): comparable; Tumor retention compared with IgG ([4]; 48 h p.i.): significantly higher; Tumor uptake compared with NtEB ([4]; ^64Cu labeled, all tested tumor models, 24 and/or 48 h p.i.): significantly improved; Kd times lower than EB complex with albumin [2]: 2 times; Kd times lower than NtEB complex with albumin [2]: 43 times; Kon value [2]: 47100 M⁻¹ s⁻¹; koff value [2]: 0.10 s⁻¹; Kd ([2]; pH 7.4): 1.8 µM; Koff ([2]; pH 7.4): 0.1009 s⁻¹; Kon ([2]; pH 7.4): 4.7128; Dimerization of albumin (AFM) [3]: observed at all tested molar ratios
